# Measurements taken from ChEMBL document CHEMBL6071189, “Exploring the 1-(4-Nitrophenyl)-3-arylprop-2-en-1-one Scaffold for the Selective Inhibition of Monoamine Oxidase B” (ACS Med Chem Lett, 2024).
# Key:
# [1] = molecular target: T1, Amine oxidase [flavin-containing] B (Homo sapiens, UniProt P27338); assay: Inhibition of recombinant human MAO-B using tyramine hydrochloride as substrate preincubated for 5 mins followed by substrate addition and measured after 5 mins in presence of horse radish peroxidase by Ampliflu Red based fluorescence microplate reader
# T1 sequence (P27338 whole entry): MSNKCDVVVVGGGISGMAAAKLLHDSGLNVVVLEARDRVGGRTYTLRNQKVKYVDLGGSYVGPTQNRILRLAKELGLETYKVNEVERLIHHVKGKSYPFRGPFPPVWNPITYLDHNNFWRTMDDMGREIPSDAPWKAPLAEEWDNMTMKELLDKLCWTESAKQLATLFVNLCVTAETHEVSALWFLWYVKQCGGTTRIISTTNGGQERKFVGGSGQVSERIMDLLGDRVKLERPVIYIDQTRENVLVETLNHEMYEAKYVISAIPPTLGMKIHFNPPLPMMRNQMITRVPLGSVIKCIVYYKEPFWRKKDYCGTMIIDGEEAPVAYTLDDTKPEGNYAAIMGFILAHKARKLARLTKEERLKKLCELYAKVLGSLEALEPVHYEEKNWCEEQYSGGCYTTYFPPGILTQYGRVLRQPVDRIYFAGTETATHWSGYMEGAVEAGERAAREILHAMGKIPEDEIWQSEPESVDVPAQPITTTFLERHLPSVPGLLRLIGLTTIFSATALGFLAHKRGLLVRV
# [2] = molecular target: T2, Amine oxidase [flavin-containing] A (Homo sapiens, UniProt P21397); assay: Inhibition of recombinant human MAO-A using tyramine hydrochloride as substrate preincubated for 5 mins followed by substrate addition and measured after 5 mins in presence of horse radish peroxidase by Ampliflu Red based fluorescence microplate reader
# T2 sequence (P21397 whole entry): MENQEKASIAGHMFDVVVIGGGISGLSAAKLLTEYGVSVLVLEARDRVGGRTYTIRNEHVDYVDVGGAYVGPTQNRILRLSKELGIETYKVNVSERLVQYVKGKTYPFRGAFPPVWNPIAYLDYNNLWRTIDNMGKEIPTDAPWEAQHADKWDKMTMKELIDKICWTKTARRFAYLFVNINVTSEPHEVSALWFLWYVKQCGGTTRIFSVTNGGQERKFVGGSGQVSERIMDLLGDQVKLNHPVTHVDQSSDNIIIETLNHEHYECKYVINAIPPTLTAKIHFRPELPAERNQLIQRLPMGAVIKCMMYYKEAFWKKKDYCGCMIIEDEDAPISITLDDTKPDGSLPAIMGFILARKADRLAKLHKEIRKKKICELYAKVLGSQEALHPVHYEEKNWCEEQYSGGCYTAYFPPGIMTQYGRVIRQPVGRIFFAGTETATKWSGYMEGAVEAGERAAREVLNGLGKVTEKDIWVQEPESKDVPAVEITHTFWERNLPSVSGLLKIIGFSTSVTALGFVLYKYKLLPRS
# [3] = species on record: Homo sapiens; assay: Selectivity index, ratio of IC50 for inhibition of recombinant human MAO-A to IC50 for inhibition of recombinant human MAO-B
IC50 [1] [nM],IC50 [2] [nM],Ratio IC50 [3],Compound
120,89000,740,Cc1ccccc1/C=C/C(=O)c1ccc([N+](=O)[O-])cc1
93,27000,290,COc1ccc(/C=C/C(=O)c2ccc([N+](=O)[O-])cc2)cc1
2.2,59000,27000,O=C(/C=C/c1ccc(Cl)c(Cl)c1)c1ccc([N+](=O)[O-])cc1
21,13000,620,O=C(/C=C/c1ccc2ccccc2c1)c1ccc([N+](=O)[O-])cc1
10,52000,5200,O=C(/C=C/c1ccc(Cl)cc1)c1ccc([N+](=O)[O-])cc1
48,7800,160,O=C(/C=C/c1ccc(F)cc1)c1ccc([N+](=O)[O-])cc1
13,2700,210,Cc1ccc(/C=C/C(=O)c2ccc([N+](=O)[O-])cc2)cc1
